Laboratory results taken from article PMC12016938, “A small molecule PKCε inhibitor reduces hyperalgesia induced by paclitaxel or opioid withdrawal” (JCI Insight, 2025).
Where “and” joins values, the source holds several entries; their conditions need not be identical. Equal values may be shown once. Read-outs that look alike come from different tables or passages of the source.

Legend:
[1] = molecular target: T1, PKCε (Homo sapiens, UniProt Q02156); test: PKCε activity with increasing ATP and CP612 (ATP competition); type: biochemical; set-up: His; AVI; made in house; host or cells: Sf9 cells; settings: without CP612; 95% CI 2.23–7.61 μM
T1 sequence (Q02156 1-737): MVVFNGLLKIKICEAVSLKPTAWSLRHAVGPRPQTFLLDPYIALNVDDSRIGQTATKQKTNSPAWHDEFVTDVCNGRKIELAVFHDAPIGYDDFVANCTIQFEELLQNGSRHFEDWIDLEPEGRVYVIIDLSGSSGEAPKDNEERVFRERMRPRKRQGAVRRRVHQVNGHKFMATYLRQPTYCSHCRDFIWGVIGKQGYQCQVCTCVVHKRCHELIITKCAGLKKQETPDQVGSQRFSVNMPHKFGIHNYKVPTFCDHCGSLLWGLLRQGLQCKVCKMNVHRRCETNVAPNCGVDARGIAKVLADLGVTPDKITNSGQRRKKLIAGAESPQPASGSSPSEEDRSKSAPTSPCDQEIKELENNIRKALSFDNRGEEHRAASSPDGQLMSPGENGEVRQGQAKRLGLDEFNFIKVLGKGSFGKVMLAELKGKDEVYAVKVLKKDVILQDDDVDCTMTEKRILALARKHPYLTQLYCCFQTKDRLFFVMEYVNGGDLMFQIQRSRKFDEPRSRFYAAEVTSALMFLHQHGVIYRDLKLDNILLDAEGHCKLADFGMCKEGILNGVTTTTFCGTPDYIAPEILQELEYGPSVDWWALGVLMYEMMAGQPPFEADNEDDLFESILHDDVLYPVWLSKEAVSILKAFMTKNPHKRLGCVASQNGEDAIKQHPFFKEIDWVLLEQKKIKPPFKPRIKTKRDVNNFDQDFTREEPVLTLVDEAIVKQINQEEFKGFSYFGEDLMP
Experimental: Therefore, we assayed PKCε activity with increasing concentrations of ATP and in the presence of increasing concentrations of CP612.
Kinase assays. CP612 was assayed against His-AVI–tagged human PKCε (1 nM) produced in Sf9 cells, and ROCK1 (Carna Biosciences; 5 nM) using the Lance-FRET kinase assay system (PerkinElmer Revvity). Other human recombinant PKCs (SignalChem Biotech) were assayed in triplicate at the following concentrations: PKCβII 1.6 nM, PKCγ 500 pM, PKCδ 5 nM, PKCθ 500 pM, and PKCζ 500 pM. PKCs were incubated in a 15 μL reaction volume with kinase buffer (20 mM Tris-HCL [pH 7.4], 10 mM MgCl2, 0.25 mM EGTA, 0.1 mg/mL BSA, and 0.15% Triton X-100), 50 nM ULight-labeled CREBtide […] (PerkinElmer, TRF0107, Revvity), and test compound. […] after 60 minutes with 10 μL of 2.5× Stop Solution/Detection Mix containing 20 mM EDTA and 4 nM LANCE Ultra Europium anti–phospho-[…] peptide antibody (PerkinElmer, TRF0200, Revvity). After incubation at 27°C for another 60 minutes, phosphorylation was detected using a FlexStation 3 Microplate Reader (Molecular Devices) in LANCE TR-FRET mode (excitation = 340 nm, emission = 665 nm) and expressed as relative fluorescence units (RFU). The percentage of inhibition was calculated as: (signal without test compound − signal with test compound)/(signal without test compound − signal without ATP) × 100. The Z’ factor for this assay ranged between 0.72 and 0.86.

[2] = Plasma protein binding, equilibrium dialysis (RED); type: in vitro ADME, human; settings: for % Recovery / recovery at 4 h, 10 µM: PBS + Plasma relative to starting concentration of 10 uM
Experimental: Plasma protein binding. Binding of CP612 to human plasma proteins was measured by equilibrium dialysis using a Rapid Equilibrium Dialysis (RED) Device (Thermo Fisher Scientific). The device uses plates with wells preloaded with equilibrium dialysis membrane inserts, each of which includes 2 side-by-side chambers separated by a dialysis membrane. […] All compounds were tested in triplicate. […] A total of 200 μL of diluted test compound was then added to the plasma chambers of triplicate wells of a 48-sample RED plate (Thermo Fisher Scientific). In total, 400 μL of 0.1M PBS buffer were added to each buffer chamber. The plate was sealed with adhesive foil and incubated at 37°C with shaking for 4 hours, after which 30 μL were removed from each chamber and diluted with either 30 μL of plasma (for buffer chamber samples) or 30 μL of 0.1M PBS (for plasma chamber samples). Samples were extracted with 3 volumes of acetonitrile, centrifuged at 16,000g at 4°C for 10 minutes, and analyzed by LC-MS to calculate the amount of drug in each chamber. The percentage of free compound was calculated as the concentration in the buffer chamber/concentration in the plasma chamber × 100%. The percentage of protein-bound compound was calculated as 100% – the percentage of free compound.

[3] = Microsomal clearance; settings: for half-life at 8.5 μM: both, human, microsomes; for % Absolute: human liver microsomes (HLM)
Experimental: Microsomal clearance. To determine if CP612 was a likely substrate for first-pass hepatic metabolism, we measured the stability of CP612 in the presence of human liver microsomes (BioIVT) pooled from over 100 male and female individuals. […] Test compounds were diluted to 10 μM in 0.1M PBS, and then 51 μL were dispensed in quadruplicate into wells of a 96-well plate, which was shaken at 600 rpm at 37°C. Reactions were initiated by adding 1.5 μL of microsomes (20 mg/mL) to the wells and 3 minutes later adding 7.5 μL of 8 mM NADPH (1 mM final concentration). Samples incubated without NADPH were used as negative controls.

[4] = Plasma stability; settings: for % Absolute: human plasma (hPL); for half-life: human
Experimental: Plasma stability. To determine in vitro plasma stability, we calculated in vitro plasma half-life. We incubated test substances (0.6 μL) with 60 μL human plasma (BioIVT) in quadruplicate at 37°C.

[5] = (Corrected concentration in PBS / Corrected concentration in Plasma) * 100, individual replicates
[6] = human, individual replicates, read-out: % Recovery
[7] = human, mean of replicates, read-out: % Recovery, Mean
[8] = time 0 min, individual replicates
[9] = time 15 min, individual replicates
[10] = time 30 min, individual replicates
[11] = time 60 min, individual replicates

Structure (SMILES): Nc1ncnc2c1ncn2[C@@H]1O[C@H](COP(=O)(O)OP(=O)(O)OP(=O)(O)O)[C@@H](O)[C@H]1O [ATP]
- EC50 [1]: 4.2 µM

Structure (SMILES): COCCc1ccc(OCC(O)CNC(C)C)cc1 (stereo not shown) [Metoprolol, metoprolol]
- % Free [2, 5]: 91.52%
- % Recovery ([2]; individual replicates): 70.00% and 78.51%
- recovery at 4 h, 10 µM [2, 6]: 66.7%
- recovery at 4 h, 10 µM [2, 7]: 71.8%
- % Bound ([2]; individual replicates): 8.48% and 10.85%

Structure (SMILES): C[C@]12CC[C@H]3[C@@H](CCC4=CC(=O)CC[C@@]43C)[C@@H]1CC[C@@H]2O [Testosterone]
- t1/2 (half life) ([3]; HLM, individual replicates, time axis in min): 14.3079 and 11.3615 and 11.8498
- half-life at 8.5 μM ([3]; Microsomal clearance t½ (min), human liver microsomes, NADPH): 12.7 ± 1.37 min
- half-life at 8.5 μM ([3]; t1/2 (half life), HLM, individual replicates, time axis in min): 13.4 min
- half-life at 8.5 μM ([3]; t1/2 (half life), Mean, HLM, mean of replicates, time axis in min): 12.7 min
- % Absolute [3, 8]: 122.56% and 99.88% and 106.38% and 105.61%
- % Absolute ([3]; time 5 min, individual replicates): 82.74% and 96.20% and 86.80% and 92.26%
- % Absolute [3, 9]: 59.56% and 70.78%
- % Absolute [3, 10]: 54.15% and 32.42% and 34.78% and 45.15%
- % Absolute ([3]; time 60 min, -NADPH, individual replicates): 125.64% and 123.20% and 118.26% and 117.65%
- % Absolute [3, 11]: 5.58% and 4.76% and 2.71% and 3.01%
- Microsomal clearance Cl ([3]; human liver microsomes, NADPH): 109.81 ± 11.69 µL/min
- % Free [2, 5]: 6.33% and 6.14%
- % Recovery ([2]; individual replicates): 74.81% and 77.04%
- % Absolute (Sample_PBS) ([2]; PBS compartment, relative to starting concentration of 10 uM, individual replicates): 4.21% and 4.46% and 4.45%
- fraction unbound at 4 h, 10 μM ([2]; human plasma, individual replicates, read-out: % Bound (converted)): 0.0593
- recovery at 4 h, 10 µM [2, 6]: 75.2%
- recovery at 4 h, 10 µM [2, 7]: 75.7%
- fraction unbound at 4 h, 10 μM ([2]; human, plasma, (Corrected concentration in PBS / Corrected concentration in Plasma) * 100, individual replicates, read-out: % Free): 0.0593
- fraction unbound at 4 h, 10 μM ([2]; human, plasma, human plasma, 37°C, 4 hours, read-out: Plasma protein binding (% bound) (converted)): 0.0613
- fraction unbound at 4 h, 10 μM ([2]; human, plasma, mean of replicates, read-out: % Bound, Mean (converted)): 0.0613
- fraction unbound at 4 h, 10 μM ([2]; human, plasma, mean of replicates, read-out: % Free, Mean): 0.0613
- % Bound ([2]; individual replicates): 93.67% and 93.86%
- % Absolute (Sample_Plasma) ([2]; plasma compartment, relative to starting concentration of 10 uM, individual replicates): 70.98% and 70.35% and 72.59%

Structure (SMILES): CCN(CC)CCOC(=O)c1ccc(N)cc1 [Procaine, reference compound]
- % Absolute [4, 8]: 122.69% and 106.84% and 107.17% and 113.76%
- % Absolute [4, 9]: 0.17% and 0.32% and 0.18%
- % Absolute [4, 10]: 0.00%
- % Absolute [4, 11]: 0.00%
- % Absolute ([4]; time 180 min, individual replicates): 0.00%
- Plasma stability Cl ([4]; human plasma, 37°C): 25.29 ± 1.35 µL/min
- Cl (clearance) ([4]; human plasma, individual replicates): 26.280 and 23.303 and 25.557 and 26.005
- t1/2 (half life) ([4]; human plasma, individual replicates, time axis in min, in min): 1.785 and 1.627 and 1.599
- half-life ([4]; human plasma, Plasma stability t½ (min), 37°C): 1.65 ± 0.09 min
- half-life ([4]; plasma, t1/2 (half life), Mean, human plasma, mean of replicates, time axis in min): 1.65 min
- half-life ([4]; plasma, t1/2 (half life), human plasma, individual replicates, time axis in min): 1.58 min
